The compounds below were run against T1, SMYD3 (Homo sapiens, UniProt Q9H7B4) (assay: SMYD3 biochemical assay (MTase-Glo, MAP3K2 peptide substrate)). Settings: Table 3; MTase assay, MAP3K2 peptide substrate; read-out: IC50.
T1 sequence (Q9H7B4 1-428): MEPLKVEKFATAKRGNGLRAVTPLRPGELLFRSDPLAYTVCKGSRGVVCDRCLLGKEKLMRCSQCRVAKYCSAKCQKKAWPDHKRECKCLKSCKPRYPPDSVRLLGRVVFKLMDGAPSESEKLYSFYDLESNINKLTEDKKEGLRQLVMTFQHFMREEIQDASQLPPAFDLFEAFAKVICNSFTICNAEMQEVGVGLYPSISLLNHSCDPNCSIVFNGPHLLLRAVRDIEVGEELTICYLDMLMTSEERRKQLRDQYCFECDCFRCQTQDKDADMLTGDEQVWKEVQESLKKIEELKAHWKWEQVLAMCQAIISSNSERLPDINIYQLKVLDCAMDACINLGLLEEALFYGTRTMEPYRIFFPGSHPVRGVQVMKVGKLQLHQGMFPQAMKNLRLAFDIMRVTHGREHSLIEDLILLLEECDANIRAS
In short: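 Methylation of MAP3K2 peptide (10 µM final) with SAM (1.0 µM final) by SMYD3, 30 min at room temperature. SAH formed was enzymatically converted to ATP and detected as luminescence with MTase-Glo reagents; IC50 by non-linear regression.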

| SMILES | IC50 [nM] |
| --- | --- |
| CCCOC(=O)N1CCN(C(=O)c2ccc3c(Cl)c4c(nc3c2)CC(c2ccncn2)CC4)CC1 (stereo not shown) [A134, Propyl 4-(9-chloro-6-(pyrimidin-4-yl)-5,6,7,8-tetrahydroacridine-3-carbonyl)piperazine-1-carboxylate] | 140 |
| CCCOC(=O)N1CCN(C(=O)c2ccc3c(Cl)c4c(nc3c2)CCCC4)CC1COC(=O)CCOC (stereo not shown) [A055, Propyl 4-(9-chloro-5,6,7,8-tetrahydroacridine-3-carbonyl)-2-(((3-methoxypropanoyl)oxy)methyl)-piperazine-1-carboxylate] | 2400 |
| CCCOC(=O)N1CCN(C(=O)c2ccc3c(Cl)cc(-c4cccc(N(C)C)c4)nc3c2)CC1 [B058, Propyl 4-(4-chloro-2-(3-(dimethylamino)phenyl)quinoline-7-carbonyl)piperazine-1-carboxylate] | 1470 |
| CCCOC(=O)N1CCN(C(=O)c2ccc3c(Cl)c4c(nc3c2)CCCC4)C(C(F)(F)F)C1 (stereo not shown) [A064, Propyl 4-(9-chloro-5,6,7,8-tetrahydroacridine-3-carbonyl)-3-(trifluoromethyl)piperazine-1-carboxylate] | 700 |
| CCCOC(=O)N1CCN(C(=O)c2ccc3c(Cl)c4c(nc3c2)CCCC4)C(C)C1 (stereo not shown) [A031, Propyl 4-(9-chloro-5,6,7,8-tetrahydroacridine-3-carbonyl)-3-methylpiperazine-1-carboxylate] | 150 |
| CCCOC(=O)N1CCN(C(=O)c2ccc3c(Cl)c4c(nc3c2)CC(CCN(C)C)CC4)C[C@H]1C (stereo partly drawn) [A135, Propyl (2R)-4-(9-chloro-6-(2-(dimethylamino)ethyl)-5,6,7,8-tetrahydroacridine-3-carbonyl)-2-methylpiperazine-1-carboxylate] | 75 |
| CCCOC(=O)N1CCN(C(=O)c2ccc3c(Cl)cc(-c4ccccc4)nc3c2)C[C@@H]1C [B018, Propyl (S)-4-(4-chloro-2-phenylquinoline-7-carbonyl)-2-methylpiperazine-1-carboxylate] | 130 |
| CCCOC(=O)N1CCN(C(=O)c2ccc3c(Cl)c4c(nc3c2)CC(c2ccnc(C)c2)CC4)CC1 (stereo not shown) [A104, Propyl 4-(9-chloro-6-(2-methylpyridin-4-yl)-5,6,7,8-tetrahydroacridine-3-carbonyl)piperazine-1-carboxylate] | 83 |
| CCCOC(=O)N1CCN(C(=O)c2ccc3c(Cl)c4c(nc3c2)CC(c2ccnc(C(N)=O)c2)CC4)CC1 (stereo not shown) [A139, Propyl 4-(6-(2-carbamoylpyridin-4-yl)-9-chloro-5,6,7,8-tetrahydroacridine-3-carbonyl)piperazine-1-carboxylate] | 350 |
| CCCOC(=O)N1C(C)CN(C(=O)c2ccc3c(Cl)c4c(nc3c2)CCCC4)CC1C (stereo not shown) [A020, Propyl 4-(9-chloro-5,6,7,8-tetrahydroacridine-3-carbonyl)-2,6-dimethylpiperazine-1-carboxylate] | 350 |
| CCCOC(=O)N1CCN(C(=O)c2ccc3c(Cl)c4c(nc3c2)CCCC4)CC1COC(=O)C(C)C (stereo not shown) [A054, Propyl 4-(9-chloro-5,6,7,8-tetrahydroacridine-3-carbonyl)-2-((isobutyryloxy)methyl)piperazine-1-carboxylate] | 5200 |
| CCCOC(=O)N1CCN(C(=O)c2ccc3c(Cl)cc(Cc4ccccc4)nc3c2)CC1 [B009, Propyl 4-(2-benzyl-4-chloroquinoline-7-carbonyl)piperazine-1-carboxylate] | 3300 |
| CCCOC(=O)N1CCN(C(=O)c2ccc3c(Cl)cc(-c4cccc(N(C)C)c4)nc3c2)C[C@H]1C [B061, Propyl (R)-4-(4-chloro-2-(3-(dimethylamino)phenyl)quinoline-7-carbonyl)-2-methylpiperazine-1-carboxylate] | 870 |
| C#Cc1cccc(-c2cc(Cl)c3ccc(C(=O)N4CCN(C(=O)OCCC)[C@H](C)C4)cc3n2)c1 [B071, Propyl (R)-4-(4-chloro-2-(3-ethynylphenyl)quinoline-7-carbonyl)-2-methylpiperazine-1-carboxylate] | 1300 |

Second part, the compound after the results:

| IC50 [nM] | SMILES |
| --- | --- |
| 120 | CCCOC(=O)N1CCN(C(=O)c2ccc3c(Cl)cc(-c4ccc5c(c4)ncn5C)nc3c2)CC1 [B183, Propyl 4-(4-chloro-2-(1-methyl-1H-benzo[d]imidazol-5-yl)quinoline-7-carbonyl)piperazine-1-carboxylate] |
| 530 | CCCOC(=O)N1CCN(C(=O)c2ccc3c(Cl)cc(-c4cccc(C(=O)N(C)C)c4)nc3c2)CC1 [B102, Propyl 4-(4-chloro-2-(3-(dimethylcarbamoyl)phenyl)quinoline-7-carbonyl)piperazine-1-carboxylate] |
| 4600 | CCCOC(=O)N1CCN(C(=O)c2ccc3c(Cl)c4c(nc3c2)CCNC4)CC1 [C008, Propyl 4-(10-chloro-1,2,3,4-tetrahydrobenzo[b][1,6]naphthyridine-7-carbonyl)piperazine-1-carboxylate] |
| 130 | CCCOC(=O)N1CCN(C(=O)c2ccc3c(Cl)cc(-c4cc(F)c(O)c(F)c4)nc3c2)C[C@H]1C [B217, Propyl (R)-4-(4-chloro-2-(3,5-difluoro-4-hydroxyphenyl)quinoline-7-carbonyl)-2-methylpiperazine-1-carboxylate] |
| 1750 | CCCOC(=O)N1CCN(C(=O)c2ccc3c(Cl)cc(-c4ccn(C)n4)nc3c2)CC1 [B168, Propyl 4-(4-chloro-2-(1-methyl-1H-pyrazol-3-yl)quinoline-7-carbonyl)piperazine-1-carboxylate] |
| 180 | CCCOC(=O)N1CCN(C(=O)c2ccc3c(Cl)cc(-c4cc(F)c(O)c(F)c4)nc3c2)CC1 [B201, Propyl 4-(4-chloro-2-(3,5-difluoro-4-hydroxyphenyl)quinoline-7-carbonyl)piperazine-1-carboxylate] |
| 16 | CCCOC(=O)N1CCN(C(=O)c2ccc3c(Cl)cc(-c4ccc(C(C)(C)O)cc4)nc3c2)C[C@@H]1C [B270, Propyl (S)-4-(4-chloro-2-(4-(2-hydroxypropan-2-yl)phenyl)quinoline-7-carbonyl)-2-methylpiperazine-1-carboxylate] |
| 390 | CCCOC(=O)N1CCN(C(=O)c2ccc3c(Cl)c(F)c(-c4ccn(C)c4)nc3c2)CC1 [B262, Propyl 4-(4-chloro-3-fluoro-2-(1-methyl-1H-pyrrol-3-yl)quinoline-7-carbonyl)piperazine-1-carboxylate] |
| 270 | CC(C)COC(=O)N1CCN(C(=O)c2ccc3c(Cl)cc(-c4ccn(C)c4)nc3c2)CC1 [B246, Isobutyl 4-(4-chloro-2-(1-methyl-1H-pyrrol-3-yl)quinoline-7-carbonyl)piperazine-1-carboxylate] |
| 140 | CCCOC(=O)N1CCN(C(=O)c2ccc3c(Cl)cc(-c4ccc(O)c(F)c4)nc3c2)CC1 [B191, Propyl 4-(4-chloro-2-(3-fluoro-4-hydroxyphenyl)quinoline-7-carbonyl)piperazine-1-carboxylate] |
| 92 | CCCOC(=O)N1CCN(C(=O)c2ccc3c(Cl)c(C)c(-c4ccc(C(N)=O)cc4)nc3c2)C[C@H]1C [B113, Propyl (R)-4-(2-(4-carbamoylphenyl)-4-chloro-3-methylquinoline-7-carbonyl)-2-methylpiperazine-1-carboxylate] |
| 39 | CCCOC(=O)N1CCN(C(=O)c2ccc3c(Cl)cc(-c4ccc(F)c(CN)c4)nc3c2)CC1 [B172, Propyl 4-(2-(3-(aminomethyl)-4-fluorophenyl)-4-chloroquinoline-7-carbonyl)piperazine-1-carboxylate] |
| 280 | CCCOC(=O)N1CCN(C(=O)c2ccc3c(Cl)cc(-c4ccc(F)c(CO)c4)nc3c2)CC1 [B150] |
| 76 | CCCOC(=O)N1CCN(C(=O)c2ccc3c(Cl)cc(-c4ccc(OC)c(CN)c4)nc3c2)C[C@H]1C [B107, Propyl (R)-4-(2-(3-(aminomethyl)-4-methoxyphenyl)-4-chloroquinoline-7-carbonyl)-2-methylpiperazine-1-carboxylate] |
| 860 | CCCOC(=O)N1CCN(C(=O)c2ccc3c(Cl)cc(-c4cccc(CN5CCOCC5)c4)nc3c2)CC1 [B105, Propyl 4-(4-chloro-2-(3-(morpholinomethyl)phenyl)quinoline-7-carbonyl)piperazine-1-carboxylate] |
| 500 | CCCOC(=O)N1CCN(C(=O)c2ccc3c(Cl)cc(-c4ccc(COCC)cc4)nc3c2)CC1 [B256, Propyl 4-(4-chloro-2-(4-(ethoxymethyl)phenyl)quinoline-7-carbonyl)piperazine-1-carboxylate] |
| 2800 | CCCOC(=O)N1CCN(C(=O)c2ccc3c(Cl)c(C#N)c(C)nc3c2)CC1 [C006, Propyl 4-(4-chloro-3-cyano-2-methylquinoline-7-carbonyl)piperazine-1-carboxylate] |
| 290 | CCCOC(=O)N1CCN(C(=O)c2ccc3c(Cl)cc(-c4ccc(O)c(OCC)c4)nc3c2)CC1 [B181, Propyl 4-(4-chloro-2-(3-ethoxy-4-hydroxyphenyl)quinoline-7-carbonyl)piperazine-1-carboxylate] |
| 1400 | CCCOC(=O)N1CCN(C(=O)c2ccc3c(Cl)cc(CC)nc3c2)CC1 [C004, Propyl 4-(4-chloro-2-ethylquinoline-7-carbonyl)piperazine-1-carboxylate] |
| 300 | CCCOC(=O)N1CCN(C(=O)c2ccc3c(Cl)cc(-c4ccn(C(=O)OC)c4)nc3c2)CC1 [B228, Propyl 4-(4-chloro-2-(1-(methoxycarbonyl)-1H-pyrrol-3-yl)quinoline-7-carbonyl)piperazine-1-carboxylate] |
